In this assay the test system is IFNγ-Induced NO Production in RAW 264.7 cells. In words: Nitric Oxide Suppression Assay (suppression of IFNγ-induced NO production). Format: cell-based. The following applies: RAW264.7; RAW 264.7 mouse macrophage cells, 20 ng/mL interferon gamma, Griess detection; single curve fit to mean data of n=2-3. As to the method: RAW 264.7, a mouse macrophage cell line, was obtained from American Type Culture Collection (Manassas Va.) and maintained in the log phase of growth in Dulbecco's Modified Eagle's Medium (DMEM), 10% heat inactivated fetal calf serum and 100 units/mL antibiotic-antimycotic (AA). Cells were cultured and maintained in a humidified incubator at 37° C. under 5% CO2 and 95% air. Cells were sub-cultured every 3 days by scraping and were not used beyond passage 20. All cell culture supplies were obtained from Life Technologies (Grand Island, N.Y.).
RAW 264.7 cells were plated 1 day in advance of experiment at a concentration of 80,000 cells/well onto CellBIND® 96 well plates (Corning, N.Y.) in a total volume of 100 μL. The next day, pre-treat cells with compounds (from 3 μM to 0.3 nM serially diluted in a 10 point curve) from a 10× stock by adding 10 μL per well in complete DMEM media containing 10% fetal calf serum. The plates were centrifuged for 3 minutes at 400×g at room temperature followed by 2 hour incubation at 37° C. The cells were then incubated overnight at 37° C. with 10 μL of the insult, interferon gamma (R&D Systems, Minneapolis, Minn.), from a 10× stock for a final concentration of 20 ng/mL. The plates were centrifuged for 3 minutes at 400×g at room temperature followed by 18 hour incubation at 37° C. The following day, transfer 50 μL cell culture supernatant from each well into a clear bottom 96 well plate and follow the instructions from Promega's Griess Detection Kit #G2930 (Madison, Wis.) which involves the addition of 50 μL of the provided sulfanilamide solution for a 5-10 minute incubation at room temperature. Next add 50 μL of the provided N-1-napthylethylenediamine dihydrochloride (NED) solution for a 5-10 minute incubation at room temperature and protected from light. If any air bubbles were introduced into the well, the plates need to be centrifuged for 5 minutes at 400×g at room temperature to avoid interference with absorbance readings. The plates were read for absorbance within 30 minutes with a filter between 520 nm and 550 nm.
For the ability of compounds to suppress the increase in nitric oxide release, the percent maximal intensity of nitric oxide detected in each well was normalized to that induced by the peak value for 20 ng/mL of interferon gamma alone and plotted against the compound concentration to calculate IC50 values and to control for plate-to-plate variability. Concentration-response data were analyzed using GraphPad Prism (San Diego, Calif.); the IC50 values were derived from a single curve fit to the mean data of n=2-3, in duplicates.
All compounds were dissolved in dimethyl sulfoxide at 10 mM stock solutions and tested at a concentration that the dimethyl sulfoxide levels never exceeded 1%.

Consider `CC1(C)C(=O)C(C#N)=C[C@]2(C)C3=CC(=O)[C@]4(O)[C@@H]5C[C@@](C)(C(=O)O)CC[C@]5(C)CC[C@@]4(C)[C@]3(C)CC[C@@H]12` [Example 3D, (2S,4aS,6aS,6bR,8aR,12aS,14aS,14bR)-11-cyano-14a-hydroxy-2,4a,6a,6b,9,9,12a-heptamethyl-10,14-dioxo-1,2,3,4,4a,5,6,6a,6b,7,8,8a,9,10,12a,14,14a,14b-octadecahydropicene-2-carboxylic acid], for which inhibition was half-maximal at 301 nM (IC50).
`CC1(C)C(=O)C(C#N)=C[C@]2(C)C3=CC(=O)[C@]4(O)[C@@H]5C[C@@](C)(C(=O)NCc6cccnn6)CC[C@]5(C)CC[C@@]4(C)[C@]3(C)CC[C@@H]12` [Example 8, (2S,4aS,6aS,6bR,8aR,12aS,14aS,14bR)-11-cyano-14a-hydroxy-2,4a,6a,6b,9,9,12a-heptamethyl-10,14-dioxo-N-(pyridazin-3-ylmethyl)-1,2,3,4,4a,5,6,6a,6b,7,8,8a,9,10,12a,14,14a,14b-octadecahydropicene-2-carboxamide] gave an IC50 of 27.9 nM.
`Cn1cc(CNC(=O)[C@@]2(C)CC[C@]3(C)CC[C@@]4(C)[C@]5(C)CC[C@H]6C(C)(C)C(=O)C(C#N)=C[C@]6(C)C5=CC(=O)[C@]4(O)[C@@H]3C2)cn1` [Example 9, (2S,4aS,6aS,6bR,8aR,12aS,14aS,14bR)-11-cyano-14a-hydroxy-2,4a,6a,6b,9,9,12a-heptamethyl-N-[(1-methyl-1H-pyrazol-4-yl)methyl]-10,14-dioxo-1,2,3,4,4a,5,6,6a,6b,7,8,8a,9,10,12a,14,14a,14b-octadecahydropicene-2-carboxamide] showed a half-inhibitory concentration (IC50) of 12.8 nM.
With `CC1(C)C(=O)C(C#N)=C[C@]2(C)C3=CC(=O)[C@]4(O)[C@@H]5C[C@@](C)(C(=O)NCc6ccco6)CC[C@]5(C)CC[C@@]4(C)[C@]3(C)CC[C@@H]12` [Example 26, (2S,4aS,6aS,6bR,8aR,12aS,14aS,14bR)-11-cyano-N-(2-furylmethyl)-14a-hydroxy-2,4a,6a,6b,9,9,12a-heptamethyl-10,14-dioxo-1,2,3,4,4a,5,6,6a,6b,7,8,8a,9,10,12a,14,14a,14b-octadecahydropicene-2-carboxamide], half-maximal inhibition (IC50) was put at 10.2 nM.
Compound `CC1(C)C(=O)C(C#N)=C[C@]2(C)C3=CC(=O)[C@@H]4[C@@H]5C[C@@](C)(C(=O)NCc6ccco6)CC[C@]5(C)CC[C@@]4(C)[C@]3(C)CC[C@@H]12` [Example 35, (2S,4aS,6aR,6bS,8aR,12aS,14aR,14bS)-11-cyano-N-(2-furylmethyl)-2,4a,6a,6b,9,9,12a-heptamethyl-10,14-dioxo-1,2,3,4,4a,5,6,6a,6b,7,8,8a,9,10,12a,14,14a,14b-octadecahydropicene-2-carboxamide] registered an IC50 of 13.8 nM.
For the compound `Cn1cc(CNC(=O)[C@@]2(C)CC[C@]3(C)CC[C@]4(C)[C@H](C(=O)C=C5[C@@]6(C)C=C(C#N)C(=O)C(C)(C)[C@@H]6CC[C@]54C)[C@@H]3C2)cn1` [Example 38, (2S,4aS,6aR,6bS,8aR,12aS,14aR,14bS)-11-cyano-2,4a,6a,6b,9,9,12a-heptamethyl-N-[(1-methyl-1H-pyrazol-4-yl)methyl]-10,14-dioxo-1,2,3,4,4a,5,6,6a,6b,7,8,8a,9,10,12a,14,14a,14b-octadecahydropicene-2-carboxamide], it took 6.8 nM to reach half-maximal inhibition (IC50).
As for `COc1ccccc1CNC(=O)[C@@]1(C)CC[C@]2(C)CC[C@@]3(C)[C@]4(C)CC[C@H]5C(C)(C)C(=O)C(C#N)=C[C@]5(C)C4=CC(=O)[C@]3(O)[C@@H]2C1` [Example 13, (2S,4aS,6aS,6bR,8aR,12aS,14aS,14bR)-11-cyano-14a-hydroxy-N-(2-methoxybenzyl)-2,4a,6a,6b,9,9,12a-heptamethyl-10,14-dioxo-1,2,3,4,4a,5,6,6a,6b,7,8,8a,9,10,12a,14,14a,14b-octadecahydropicene-2-carboxamide], 60.7 nM corresponded to half-maximal inhibition (IC50).
Turning to `CC1(C)C(=O)C(C#N)=C[C@]2(C)C3=CC(=O)[C@@H]4[C@@H]5C[C@@](C)(C(=O)NCc6cnco6)CC[C@]5(C)CC[C@@]4(C)[C@]3(C)CC[C@@H]12` [Example 39, (2S,4aS,6aR,6bS,8aR,12aS,14aR,14bS)-11-cyano-2,4a,6a,6b,9,9,12a-heptamethyl-N-(1,3-oxazol-5-ylmethyl)-10,14-dioxo-1,2,3,4,4a,5,6,6a,6b,7,8,8a,9,10,12a,14,14a,14b-octadecahydropicene-2-carboxamide], the IC50 was 5.7 nM.
Compound `CC1(C)C(=O)C(C#N)=C[C@]2(C)C3=CC(=O)[C@@H]4[C@@H]5C[C@@](C)(C(=O)NC6CCCCC6)CC[C@]5(C)CC[C@@]4(C)[C@]3(C)CC[C@@H]12` [Example 36, (2S,4aS,6aR,6bS,8aR,12aS,14aR,14bS)-11-cyano-N-cyclohexyl-2,4a,6a,6b,9,9,12a-heptamethyl-10,14-dioxo-1,2,3,4,4a,5,6,6a,6b,7,8,8a,9,10,12a,14,14a,14b-octadecahydropicene-2-carboxamide] displayed a concentration for half-maximal inhibition (IC50) of 142 nM.
In the case of `CCCNC(=O)[C@@]1(C)CC[C@]2(C)CC[C@@]3(C)[C@]4(C)CC[C@H]5C(C)(C)C(=O)C(C#N)=C[C@]5(C)C4=CC(=O)[C@]3(O)[C@@H]2C1` [Example 25, (2S,4aS,6aS,6bR,8aR,12aS,14aS,14bR)-11-cyano-14a-hydroxy-2,4a,6a,6b,9,9,12a-heptamethyl-10,14-dioxo-N-propyl-1,2,3,4,4a,5,6,6a,6b,7,8,8a,9,10,12a,14,14a,14b-octadecahydropicene-2-carboxamide], half-maximal inhibition (IC50) was put at 7.8 nM.
To `COCC(COC)NC(=O)[C@@]1(C)CC[C@]2(C)CC[C@@]3(C)[C@]4(C)CC[C@H]5C(C)(C)C(=O)C(C#N)=C[C@]5(C)C4=CC(=O)[C@]3(O)[C@@H]2C1` [Example 23, (2S,4aS,6aS,6bR,8aR,12aS,14aS,14bR)-11-cyano-N-(1,3-dimethoxypropan-2-yl)-14a-hydroxy-2,4a,6a,6b,9,9,12a-heptamethyl-10,14-dioxo-1,2,3,4,4a,5,6,6a,6b,7,8,8a,9,10,12a,14,14a,14b-octadecahydropicene-2-carboxamide] belongs 10.8 nM.
On to `Cc1ccccc1CNC(=O)[C@@]1(C)CC[C@]2(C)CC[C@@]3(C)[C@]4(C)CC[C@H]5C(C)(C)C(=O)C(C#N)=C[C@]5(C)C4=CC(=O)[C@]3(O)[C@@H]2C1` [Example 11, (2S,4aS,6aS,6bR,8aR,12aS,14aS,14bR)-11-cyano-14a-hydroxy-2,4a,6a,6b,9,9,12a-heptamethyl-N-(2-methylbenzyl)-10,14-dioxo-1,2,3,4,4a,5,6,6a,6b,7,8,8a,9,10,12a,14,14a,14b-octadecahydropicene-2-carboxamide], for which the IC50 is 140 nM.
The compound `CC1(C)C(=O)C(C#N)=C[C@]2(C)C3=CC(=O)[C@]4(O)[C@@H]5C[C@@](C)(C(=O)n6ccnc6)CC[C@]5(C)CC[C@@]4(C)[C@]3(C)CC[C@@H]12` [Example 15, (4aR,6aR,6bS,8aS,11S,12aR,12bS,14bS)-12b-hydroxy-11-(1H-imidazol-1-ylcarbonyl)-4,4,6a,6b,8a,11,14b-heptamethyl-3,13-dioxo-3,4,4a,5,6,6a,6b,7,8,8a,9,10,11,12,12a,12b,13,14b-octadecahydropicene-2-carbonitrile] displayed an IC50 of 269 nM.
To `CC1(C)C(=O)C(C#N)=C[C@]2(C)C3=CC(=O)[C@]4(O)[C@@H]5C[C@@](C)(C(=O)NCc6ccccc6)CC[C@]5(C)CC[C@@]4(C)[C@]3(C)CC[C@@H]12` [Example 22, (2S,4aS,6aS,6bR,8aR,12aS,14aS,14bR)—N-benzyl-11-cyano-14a-hydroxy-2,4a,6a,6b,9,9,12a-heptamethyl-10,14-dioxo-1,2,3,4,4a,5,6,6a,6b,7,8,8a,9,10,12a,14,14a,14b-octadecahydropicene-2-carboxamide] belongs 27.1 nM; to `CC(C)(C)CNC(=O)[C@@]1(C)CC[C@]2(C)CC[C@@]3(C)[C@]4(C)CC[C@H]5C(C)(C)C(=O)C(C#N)=C[C@]5(C)C4=CC(=O)[C@]3(O)[C@@H]2C1` [Example 7, (2S,4aS,6aS,6bR,8aR,12aS,14aS,14bR)-11-cyano-N-(2,2-dimethylpropyl)-14a-hydroxy-2,4a,6a,6b,9,9,12a-heptamethyl-10,14-dioxo-1,2,3,4,4a,5,6,6a,6b,7,8,8a,9,10,12a,14,14a,14b-octadecahydropicene-2-carboxamide], 22.4 nM.

Values taken from patent US20140073700A1, “[…] ACID DERIVATIVES AND METHODS OF USE THEREOF” (AbbVie Inc., priority 2012, published 2014).
